Test results as given in patent US5585382A, “Polycyclic and heterocyclic chromophores for bis-imide tumoricidals” (The DuPont Merck Pharmaceutical Company, priority 1995, dated 1996).
Like-named read-outs stand apart in the source and are kept apart here.

How the values were obtained:
[1] = tested on: Clone A human colon cancer cells; assay: In vitro growth inhibition of Clone A cells (MTT, 72 hr); format: cell-based; settings: read-out: Clone A IC50
How it was run: (§1)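 Cells seeded on day 0 (1×10^3 L1210 or 8×10^2 Clone A per well), graded compound concentrations added on day 1, then 72 hr at 37 °C. MTT 4 h, formazan dissolved in acidic isopropanol, read at 570/630 nm; IC50 from curve fit as half-maximal inhibition of population doublings, eight replicates.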

[2] = tested on: MX-1 human mammary carcinoma; assay: In vivo human tumor xenograft MX-1 in nude mice; settings: for Tumor Growth Inhibition activity against MX-1 (in words): NCI criteria
Description: (§2) The DLD-2 human colon tumor and MX-1 human mammary carcinoma, were originally obtained from a surgically-removed primary colon carcinoma or breast tumor respectively. The human tumor lines were maintained by serial passage in athymic nude mice. The MX-1 human mammary carcinoma is an established tumor used by the NCI. The DLD-2 human colon tumor has been well characterized. (Dexter, D. L.; Spremulli, E. N.; Matook, G. M.; Diamond, I.; Calabresi, P. Cancer Research 1982, 42, 5010; Dexter, D. L.; Barbosa, J. A.; Calabresi, P. Cancer Research 1979, 39, 1020.)
(§3) The mice used in these experiments were outbred Swiss mice or CD-1 mice bearing the nude (nu/nu) gene. On Day 0, male and female mice weighing 22-30 g are inoculated with 0.2 mL of a 25% tumor mince. This mince is prepared by mincing fresh tumor tissue, grown subcutaneously in passage mice, in sterile physiological saline. Palpable tumors weighing approximately 50 mg appear in the mice within 7-10 days after inoculation. The mice are pair matched by tumor weight and sex into groups of ten each and the test compounds and vehicle control are administered intravenously (i.v.) once daily for nine consecutive days. A >20% decrease in body weight on Day 5 following compound administration is considered an indication of toxicity. Tumor measurements and body weights are recorded once a week. Fifteen to eighteen days after the initial injection the mice are weighed, sacrificed, and the tumors excised and weighed.
(§4) The efficacy of the test compounds is determined by the extent of tumor growth inhibition in treated versus vehicle-treated control mice. Initial tumor weights (mg) are calculated from the tumor dimensions (mm) obtained from caliper measurements, using the formula for a prolate ellipsoid (mg of tumor weight=(length×width^2)/2). Net tumor weights are calculated for each of the treated groups and the vehicle-treated control group by subtracting the initial tumor weight from the final tumor weight (Day 15-18). Results are expressed as a percentage decrease relative to the mean tumor weight for the control vehicle-treated group.
(§5) Tumor Growth Inhibition= [formula]
(§6) The evaluation criteria of the National Cancer Institute for activity in in vivo cancer models were used. Tumor growth inhibition of 58-89% against the various xenografts is considered moderate activity, and inhibition of ≥90% is considered good to excellent activity. Actual tumor regressions (IR=incomplete regression; FR=full regression) indicate excellent to outstanding activity.

[3] = tested on: Murine leukemia L1210 cells; assay: In vitro growth inhibition of L1210 cells (MTT, 72 hr); format: cell-based; settings: Mus musculus, read-out: L1210 IC50
How it was run: as §1

DLD-2 human colon tumor = assay: In vivo human tumor xenograft DLD-2 in nude mice; settings: for Tumor Growth Inhibition activity against DLD-2 (in words): NCI criteria
Description: as §2, §3, §4, §5, §6

[4] = Mus musculus, iv, 216 h, read-out: MX-1 percent tumor growth inhibition
[5] = Mus musculus, iv, 216 h, read-out: MX-1 tumor regressions, IR=incomplete regression
[6] = i.v. once daily for nine days, nude mice
[7] = Mus musculus, DLD2, iv, 216 h, read-out: DLD-2 percent tumor growth inhibition

Compound | IC50 ([1]; 72 h) | Tumor Growth Inhibition activity against MX-1 (in words) [2, 6] | IC50 ([3]; L1210, 72 h) | solubility (Solubility in water) | Tumor Growth Inhibition activity against DLD-2 (in words) (DLD-2 human colon tumor; [6]) | inhibition in vivo at 10 mg/kg (DLD-2 human colon tumor; [7]) | further results
CS(=O)(=O)O.O=C1c2cccc3cc([N+](=O)[O-])cc(c23)C(=O)N1CCCCNCCCN1C(=O)c2cc([N+](=O)[O-])cc3c2c(cc2cccnc23)C1=O [Example 111, 4-[3-(3-Nitro-5-azaphenanthrene-1,10-dicarboximido)propylamino]-1-(3-nitronaphthalene-1,8-dicarboximido)butane Hydromethanesulfonate] | 2 ng/mL | moderate to excellent | 3 ng/mL | 240 µg/mL | moderate to excellent |  | MX-1 tumor regressions, FR=full regression ([2]; 20 mg/kg, i.v. once daily for nine days, nude mice): 1/9; inhibition in vivo at 20 mg/kg [2, 4]: 99%; responders at 20 mg/kg [2, 5]: 77.8%; DLD-2 tumor regressions, IR=incomplete regression (DLD-2 human colon tumor; 18 mg/kg, i.v. once daily for nine days, nude mice): 2/7; inhibition in vivo at 18 mg/kg (DLD-2 human colon tumor; [7]): 99%
CS(=O)(=O)O.CS(=O)(=O)O.Nc1cc2c3c(cc4cccnc4c3c1)C(=O)N(CCCNCCCCN1C(=O)c3cccc4cc([N+](=O)[O-])cc(c34)C1=O)C2=O [Example 112, 4-[3-(3-Amino-5-azaphenanthrene-1,10-dicarboximido)propylamino]-1-(3-nitronaphthalene-1,8-dicarboximido)butane Dihydromethanesulfonate] |  | moderate to excellent |  | 7500 µg/mL |  |  | IC50 ([1]; Clone A cells, 72 hr, MTT): 7 ng/mL; inhibition in vivo at 25 mg/kg ([2]; Mus musculus, iv, 216 h, 25 mg/kg, i.v. once daily for nine days, nude mice, read-out: MX-1 percent tumor growth inhibition): 98%; responders at 25 mg/kg ([2]; Mus musculus, iv, 216 h, 25 mg/kg, i.v. once daily for nine days, nude mice, read-out: MX-1 tumor regressions, IR=incomplete regression (converted)): 37.5%; IC50 ([3]; L1210 cells, 72 hr, MTT): 20 ng/mL; inhibition in vivo at 12.5 mg/kg (DLD-2 human colon tumor; Mus musculus, DLD2, iv, 216 h, 12.5 mg/kg, i.v. once daily for nine days, nude mice, read-out: DLD-2 percent tumor growth inhibition): 48%
CS(=O)(=O)O.O=C1c2cc([N+](=O)[O-])cc3c2c(cc2ncccc23)C(=O)N1CCCCNCCCN1C(=O)c2cc([N+](=O)[O-])cc3c2c(cc2ncccc23)C1=O [Example 18, 4-[3-(3-Nitro-8-azaphenanthrene-1,10-dicarboximido)propylamino]-1-(3-nitro-8-azaphenanthrene-1, 10-dicarboximido)butane Hydromethanesulfonate] | 7 ng/mL |  | 1 ng/mL | 20 µg/mL | moderate to excellent |  | inhibition in vivo at 12.5 mg/kg (DLD-2 human colon tumor; [7]): 84%
CS(=O)(=O)O.O=C1c2cc([N+](=O)[O-])cc3c2c(cc2cccnc23)C(=O)N1CCCNCCN1C(=O)c2cc([N+](=O)[O-])cc3c2c(cc2cccnc23)C1=O [Example 3, 3-[2-(3-Nitro-5-azaphenanthrene-1,10-dicarboximido)ethylamino]-1-(3-nitro-5-azaphenanthrene-1, 10-dicarboximido) propane Hydromethanesulfonate] | 4 ng/mL |  | 6 ng/mL | 80 µg/mL | moderate to excellent |  | inhibition in vivo at 20 mg/kg (DLD-2 human colon tumor; [7]): 92%
CS(=O)(=O)O.O=C1c2cc([N+](=O)[O-])cc3c2c(cc2cccnc23)C(=O)N1CCCCNCCCN1C(=O)c2cc([N+](=O)[O-])cc3c2c(cc2cccnc23)C1=O [Example 5, 4-[3-(3-Nitro-5-azaphenanthrene-1, 10-dicarboximido)propylamino]-1-(3-nitro-5-azaphenanthrene-1, 10-dicarboximido)butane Hydromethanesulfonate] | 13 ng/mL |  | 6 ng/mL | 60 µg/mL | moderate to excellent | 82% | 
CS(=O)(=O)O.CS(=O)(=O)O.Cc1nc2cc3c4c(cccc4c2[nH]1)C(=O)N(CCCNCCCCN1C(=O)c2cccc4cc([N+](=O)[O-])cc(c24)C1=O)C3=O [Example 140, 4-[3-(2-Methyl-1H-naphth[1,2-d]imidazole-5,6-dicarboximido)propylamino]-1-(3-nitronaphthalene-1,8-dicarboximido)butane Dihydromethanesulfonate] |  |  |  | 9000 µg/mL |  |  | IC50 ([1]; Clone A cells, 72 hr, MTT): 101 ng/mL; IC50 ([3]; L1210 cells, 72 hr, MTT): 425 ng/mL; inhibition in vivo at 50 mg/kg (DLD-2 human colon tumor; Mus musculus, DLD2, iv, 216 h, 50 mg/kg, i.v. once daily for nine days, nude mice, read-out: DLD-2 percent tumor growth inhibition): 0%
CS(=O)(=O)O.CS(=O)(=O)O.Cc1cnc2c(c1)cc1c3c(cc([N+](=O)[O-])cc32)C(=O)N([C@H](C)CNC[C@@H](C)NC[C@@H](C)N2C(=O)c3cc([N+](=O)[O-])cc4c3c(cc3cc(C)cnc34)C2=O)C1=O [Example 25, (R,R)-1,2-bis-[2-(3-Nitro-7-methyl-5-azaphenanthrene-1, 10dicarboximido)propylamino]-(R)-1-methylethane Dihydromethanesulfonate] | 10 ng/mL | moderate to excellent | 48 ng/mL | 4820 µg/mL |  |  | MX-1 tumor regressions, FR=full regression ([2]; 25 mg/kg, i.v. once daily for nine days, nude mice): 1/8; inhibition in vivo at 25 mg/kg [2, 4]: 99%; responders at 25 mg/kg [2, 5]: 75%; inhibition in vivo at 25 mg/kg (DLD-2 human colon tumor; [7]): 97%
CS(=O)(=O)O.O=C1c2cc([N+](=O)[O-])cc3c2c(cc2cccnc23)C(=O)N1CCCNCCCN1C(=O)c2cc([N+](=O)[O-])cc3c2c(cc2cccnc23)C1=O [Example 4, 3-[3-(3-Nitro-5-azaphenanthrene-1,10-dicarboximido)propylamino]-1-(3-nitro-5-azaphenanthrene-1, 10-dicarboximido)propane Hydromethanesulfonate] | 5 ng/mL |  | 11 ng/mL | 450 µg/mL |  | 57% | 
CS(=O)(=O)O.CS(=O)(=O)O.C[C@@H](CNCCNC[C@H](C)N1C(=O)c2cc([N+](=O)[O-])cc3c2c(cc2cccnc23)C1=O)N1C(=O)c2cc([N+](=O)[O-])cc3c2c(cc2cccnc23)C1=O [Example 7, (S,S)-1,2-bis-[2-(3-Nitro-5-azaphenanthrene-1,10-dicarboximido)propylamino]ethane Dihydromethanesulfonate] | 28 ng/mL |  | 48 ng/mL | 680 µg/mL | moderate to excellent |  | inhibition in vivo at 12.5 mg/kg (DLD-2 human colon tumor; [7]): 83%
CS(=O)(=O)O.CS(=O)(=O)O.C[C@H](CNCCNC[C@@H](C)N1C(=O)c2cc([N+](=O)[O-])cc3c2c(cc2cccnc23)C1=O)N1C(=O)c2cc([N+](=O)[O-])cc3c2c(cc2cccnc23)C1=O [Example 8, (R,R)-1,2-bis-[2-(3-Nitro-5-azaphenanthrene-1,10-dicarboximido)propylamino]ethane Dihydromethanesulfonate] | 8 ng/mL | moderate to excellent | 30 ng/mL | 4000 µg/mL | moderate to excellent | 95% | MX-1 tumor regressions, FR=full regression ([2]; 5 mg/kg, i.v. once daily for nine days, nude mice): 2/9; responders at 5 mg/kg [2, 5]: 77.8%; DLD-2 tumor regressions, IR=incomplete regression (DLD-2 human colon tumor; 10 mg/kg, i.v. once daily for nine days, nude mice): 2/9
CS(=O)(=O)O.O=C1c2cccc3cc([N+](=O)[O-])cc(c23)C(=O)N1CCCCNCCCN1C(=O)c2cc([N+](=O)[O-])cc3c2c(cc2ncccc23)C1=O [Example 115, 4-[3-(3-Nitro-8-azaphenanthrene-1,10-dicarboximido)propylamino]-1-(3-nitronaphthalene-1,8dicarboximido)butane Hydromethanesulfonate] | 1 ng/mL | moderate to excellent | 3 ng/mL | 150 µg/mL | moderate to excellent | 90% | inhibition in vivo at 6 mg/kg [2, 4]: 95%; responders at 6 mg/kg [2, 5]: 12.5%
